One block for each molecule: values may come before it.
How the values were obtained:
Na^+ /H^+ exchanger = biological target: T1, Na^+ /H^+ exchanger (Oryctolagus cuniculus, UniProt P23791); experiment: Inhibition of the Na+/H+ exchanger of rabbit erythrocytes (amiloride-sensitive sodium influx, flame photometry); assay type: cell-based, rabbit (White New Zealand); settings: 37° C., pH 7.4, hyperosmolar salt-sucrose medium
T1 construct: endogenous in cells; host or cells: rabbit erythrocytes (whole blood of cholesterol-fed White New Zealand rabbits)
From the text: White New Zealand rabbits (Ivanovas) received a standard diet containing 2% cholesterol for six weeks, in order to activate Na^+ /H^+ exchange and thus to enable the Na^+ influx into the erythrocytes via […] exchange to be determined by flame photometry. The blood was taken from the auricular arteries and made incoagulable by means of 25 IU of potassium heparin. A portion of each sample was used for duplicate determination of the hematocrit by centrifugation. Aliquots of in each case 100 μl were used to measure the initial Na^+ content of the erythrocytes.
In order to determine the amiloride-sensitive sodium influx, 100 μl of each blood sample were incubated at 37° C. and at pH 7.4 in each case in 5 ml of a hyperosmolar salt-sucrose medium (in mmol/l: 140 NaCl, 3 KCl, 150 sucrose, 0.1 ouabain, 20 trishydroxymethylaminomethane). The erythrocytes were then washed three times with ice-cold MgCl2 -ouabain solution (in mmol/l: 112 MgCl2, 0.1 ouabain) and hemolyzed in 2.0 ml of distilled water. The intracellular sodium content was determined by flame photometry.
The net Na^+ influx was calculated from the difference between the initial sodium values and the sodium content of the erythrocytes after incubation. The amiloride-inhibitable sodium influx was given by the difference of the sodium content of the erythrocytes after incubation with and without 3×10^-4 mol/l of amiloride. […]

rat hearts = settings: isolated rat hearts, cited from earlier work
cardiac arrhythmias = settings: cited from earlier work

T1 sequence (P23791 whole entry): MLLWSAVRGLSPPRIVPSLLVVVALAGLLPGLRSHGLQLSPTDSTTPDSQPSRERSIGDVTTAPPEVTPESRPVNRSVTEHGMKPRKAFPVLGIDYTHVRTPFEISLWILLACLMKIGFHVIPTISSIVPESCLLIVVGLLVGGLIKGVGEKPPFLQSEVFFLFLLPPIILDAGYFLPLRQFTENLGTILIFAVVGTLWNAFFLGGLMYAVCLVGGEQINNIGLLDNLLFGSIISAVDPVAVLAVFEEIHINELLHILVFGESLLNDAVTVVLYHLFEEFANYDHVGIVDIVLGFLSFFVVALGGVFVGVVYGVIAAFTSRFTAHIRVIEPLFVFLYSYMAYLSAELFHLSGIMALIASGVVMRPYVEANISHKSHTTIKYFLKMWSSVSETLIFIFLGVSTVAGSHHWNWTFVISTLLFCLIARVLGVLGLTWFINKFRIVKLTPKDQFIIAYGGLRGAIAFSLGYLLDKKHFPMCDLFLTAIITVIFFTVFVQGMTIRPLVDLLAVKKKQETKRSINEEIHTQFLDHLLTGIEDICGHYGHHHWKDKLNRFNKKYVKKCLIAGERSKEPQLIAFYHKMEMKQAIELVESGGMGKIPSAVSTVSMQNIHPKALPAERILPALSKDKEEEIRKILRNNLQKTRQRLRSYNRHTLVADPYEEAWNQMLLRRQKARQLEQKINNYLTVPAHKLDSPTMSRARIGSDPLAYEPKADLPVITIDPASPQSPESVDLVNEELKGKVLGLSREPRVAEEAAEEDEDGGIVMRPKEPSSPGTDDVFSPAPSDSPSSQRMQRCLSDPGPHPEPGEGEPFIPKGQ

- IC50 (Na^+ /H^+ exchanger): 70 nM
Compound: CC(C)c1ccc(C(=O)N=C(N)N)cc1S(=O)(=O)C(F)(F)F [Example 2, 4-Isopropyl-3-trifluoromethylsulfonylbenzoylguanidine]

- IC50 (Na^+ /H^+ exchanger): 200 nM
Compound: NC(N)=NC(=O)c1ccc(Oc2ccc(F)cc2)c(S(=O)(=O)C(F)(F)F)c1 [Example 1, 4-(4-Fluorophenoxy)-3-trifluoromethylsulfonylbenzoylguanidine]

Compound: NC(N)=NC(=O)c1nc(Cl)c(N)nc1N [amiloride]
- suppression of artificially induced ventricular fibrillation (rat hearts; Eur. Heart J. 9 (suppl.1): 167 (1988)): completely suppressed
- antiarrhythmic effect (cardiac arrhythmias; Circulation 79, 1257-63 (1989)): only weakly pronounced
- side-effects accompanying antiarrhythmic effect (cardiac arrhythmias; in vivo): hypotensive and saluretic effects

Compound: CCN(c1nc(N)c(C(=O)N=C(N)N)nc1Cl)C(C)C [ethylisopropylamiloride]
- potency relative to amiloride in ventricular fibrillation model (rat hearts; compared with amiloride): even more potent than amiloride

— patent publication US5571842A, “Perfluoroalkyl-substituted, benzoylguanidines, a process for their preparation, their use as a medicament or diagnostic agent, and a medicament containing them” (priority 1994, dated 1996)
